Measurements from the NIST ThermoML archive (doi:10.1021/je030167i).
Numbers after ± are expanded uncertainties.

What was measured:
[1] = 101.3 kPa, Liquid
[2] = xn = mol fraction of the nth substance listed; conditions: 101.3 kPa, Liquid

CC(C)CCl [1-chloro-2-methylpropane]
[1]
Conditions | kinematic viscosity [m2/s] | mass density [kg/m3]
298.15 K | 4.92e-07 ± 1.8e-08 | 870.93 ± 0.49
313.15 K | 4.29e-07 ± 1.6e-08 | 853.51 ± 0.49

CCCCCl [1-chlorobutane]
[1]
Conditions | kinematic viscosity [m2/s] | mass density [kg/m3]
298.15 K | 4.78e-07 ± 1.7e-08 | 880.62 ± 0.3
313.15 K | 4.21e-07 ± 1.6e-08 | 863.86 ± 0.31

CC(C)(C)Cl [2-chloro-2-methylpropane]
[1], 298.15 K
Conditions | kinematic viscosity [m2/s] | mass density [kg/m3]
– | 5.66e-07 ± 1e-08 | 835.75 ± 0.49

CCC(C)Cl (stereo unspecified) [2-chlorobutane]
[1]
Conditions | kinematic viscosity [m2/s] | mass density [kg/m3]
298.15 K | 4.54e-07 ± 1.7e-08 | 867.31 ± 0.49
313.15 K | 3.97e-07 ± 1.5e-08 | 850.23 ± 0.49

CC(C)CO [2-methyl-1-propanol]
[1]
Conditions | kinematic viscosity [m2/s] | mass density [kg/m3]
298.15 K | 4.25e-06 ± 1.2e-07 | 797.71 ± 0.35
313.15 K | 2.74e-06 ± 8.2e-08 | 785.89 ± 0.36

CC(C)(C)O [2-methylpropan-2-ol]
[1]
Conditions | kinematic viscosity [m2/s] | mass density [kg/m3]
298.15 K | 5.59e-06 ± 1.6e-07 | 780.67 ± 0.36
313.15 K | 2.74e-06 ± 8.8e-08 | 765.33 ± 0.37

CC1CCCO1 (stereo unspecified) [2-methyltetrahydrofuran]
[1]
Conditions | kinematic viscosity [m2/s] | mass density [kg/m3]
298.15 K | 5.59e-07 ± 2e-08 | 849.28 ± 0.49
313.15 K | 4.92e-07 ± 1.8e-08 | 834.01 ± 0.49

CC1CCCO1 (stereo unspecified) [2-methyltetrahydrofuran] + CCC(C)O
[2]
Conditions | kinematic viscosity, 298.15 K [m2/s] | kinematic viscosity, 313.15 K [m2/s] | mass density, 298.15 K [kg/m3] | mass density, 313.15 K [kg/m3]
x2 = 0 | 5.59e-07 ± 2e-08 | 4.92e-07 ± 1.8e-08 | 849.28 ± 0.49 | 834.01 ± 0.49
x2 = 0.0437 | 5.66e-07 ± 2e-08 | 4.91e-07 ± 1.8e-08 | 847.1 ± 0.49 | 831.74 ± 0.49
x2 = 0.0915 | 6.07e-07 ± 2.1e-08 | 5.06e-07 ± 1.8e-08 | 844.81 ± 0.49 | 829.48 ± 0.49
x2 = 0.1968 | 6.45e-07 ± 2.2e-08 | 5.54e-07 ± 2e-08 | 839.74 ± 0.49 | 824.64 ± 0.49
x2 = 0.3024 | 7.16e-07 ± 2.4e-08 | 6.04e-07 ± 2.1e-08 | 834.82 ± 0.49 | 820.02 ± 0.49
x2 = 0.3993 | 8.06e-07 ± 2.7e-08 | 6.7e-07 ± 2.3e-08 | 830.17 ± 0.49 | 815.81 ± 0.49
x2 = 0.5051 | 9.5e-07 ± 3.1e-08 | 7.71e-07 ± 2.6e-08 | 825.31 ± 0.49 | 811.2 ± 0.49
x2 = 0.6018 | 1.11e-06 ± 3.6e-08 | 8.78e-07 ± 2.9e-08 | 820.77 ± 0.49 | 806.88 ± 0.49
x2 = 0.6999 | 1.39e-06 ± 4.4e-08 | 1.05e-06 ± 3.4e-08 | 816.27 ± 0.49 | 802.66 ± 0.49
x2 = 0.8077 | 1.86e-06 ± 5.7e-08 | 1.34e-06 ± 4.2e-08 | 811.31 ± 0.49 | 797.97 ± 0.49
x2 = 0.8708 | 2.26e-06 ± 6.8e-08 | 1.57e-06 ± 4.9e-08 | 808.35 ± 0.49 | 795.28 ± 0.5
x2 = 0.9361 | 2.9e-06 ± 8.6e-08 | 1.86e-06 ± 5.8e-08 | 805.28 ± 0.49 | 792.38 ± 0.5

CC1CCCO1 (stereo unspecified) [2-methyltetrahydrofuran] + CCCCCl
[2]
Conditions | kinematic viscosity, 298.15 K [m2/s] | kinematic viscosity, 313.15 K [m2/s] | mass density, 298.15 K [kg/m3] | mass density, 313.15 K [kg/m3]
x2 = 0 | 5.59e-07 ± 2e-08 | 4.92e-07 ± 1.8e-08 | 849.28 ± 0.49 | 834.01 ± 0.49
x2 = 0.0494 | 5.56e-07 ± 2e-08 | 4.88e-07 ± 1.8e-08 | 850.97 ± 0.48 | 835.48 ± 0.48
x2 = 0.1008 | 5.52e-07 ± 2e-08 | 4.85e-07 ± 1.8e-08 | 852.97 ± 0.47 | 837.19 ± 0.47
x2 = 0.203 | 5.43e-07 ± 1.9e-08 | 4.78e-07 ± 1.8e-08 | 856.41 ± 0.45 | 840.52 ± 0.45
x2 = 0.3004 | 5.35e-07 ± 1.9e-08 | 4.71e-07 ± 1.7e-08 | 859.76 ± 0.43 | 843.74 ± 0.44
x2 = 0.3963 | 5.27e-07 ± 1.9e-08 | 4.64e-07 ± 1.7e-08 | 862.73 ± 0.41 | 846.73 ± 0.42
x2 = 0.4969 | 5.18e-07 ± 1.9e-08 | 4.56e-07 ± 1.7e-08 | 865.86 ± 0.4 | 849.69 ± 0.4
x2 = 0.5976 | 5.09e-07 ± 1.8e-08 | 4.49e-07 ± 1.7e-08 | 869.09 ± 0.38 | 852.75 ± 0.38
x2 = 0.6993 | 5.01e-07 ± 1.8e-08 | 4.41e-07 ± 1.6e-08 | 872.11 ± 0.36 | 855.69 ± 0.36
x2 = 0.7993 | 4.93e-07 ± 1.8e-08 | 4.34e-07 ± 1.6e-08 | 874.9 ± 0.34 | 858.36 ± 0.35
x2 = 0.8988 | 4.85e-07 ± 1.8e-08 | 4.27e-07 ± 1.6e-08 | 878.01 ± 0.32 | 861.05 ± 0.33
x2 = 0.9483 | 4.82e-07 ± 1.8e-08 | 4.24e-07 ± 1.6e-08 | 879.23 ± 0.31 | 862.56 ± 0.32

CC1CCCO1 (stereo unspecified) [2-methyltetrahydrofuran] + CCCCO
[2]
Conditions | kinematic viscosity, 298.15 K [m2/s] | kinematic viscosity, 313.15 K [m2/s] | mass density, 298.15 K [kg/m3] | mass density, 313.15 K [kg/m3]
x2 = 0 | 5.59e-07 ± 2e-08 | 4.92e-07 ± 1.8e-08 | 849.28 ± 0.49 | 834.01 ± 0.49
x2 = 0.0488 | 5.91e-07 ± 2.1e-08 | 5.11e-07 ± 1.9e-08 | 847.62 ± 0.48 | 832.35 ± 0.48
x2 = 0.1039 | 6.22e-07 ± 2.2e-08 | 5.35e-07 ± 1.9e-08 | 845.56 ± 0.46 | 830.5 ± 0.46
x2 = 0.205 | 6.93e-07 ± 2.3e-08 | 5.88e-07 ± 2.1e-08 | 841.78 ± 0.43 | 827.07 ± 0.43
x2 = 0.3006 | 7.7e-07 ± 2.6e-08 | 6.52e-07 ± 2.2e-08 | 838.03 ± 0.41 | 823.64 ± 0.41
x2 = 0.4051 | 8.81e-07 ± 2.9e-08 | 7.34e-07 ± 2.5e-08 | 833.86 ± 0.38 | 820 ± 0.39
x2 = 0.5099 | 1.05e-06 ± 3.4e-08 | 8.41e-07 ± 2.8e-08 | 829.37 ± 0.36 | 815.98 ± 0.36
x2 = 0.6036 | 1.21e-06 ± 3.8e-08 | 9.69e-07 ± 3.1e-08 | 825.28 ± 0.34 | 812.07 ± 0.35
x2 = 0.7034 | 1.47e-06 ± 4.5e-08 | 1.16e-06 ± 3.6e-08 | 820.68 ± 0.32 | 807.96 ± 0.33
x2 = 0.8042 | 1.84e-06 ± 5.6e-08 | 1.39e-06 ± 4.3e-08 | 815.8 ± 0.31 | 803.45 ± 0.32
x2 = 0.906 | 2.4e-06 ± 7.1e-08 | 1.76e-06 ± 5.3e-08 | 810.56 ± 0.3 | 798.76 ± 0.31
x2 = 0.9582 | 2.8e-06 ± 8.2e-08 | 1.99e-06 ± 6e-08 | 807.81 ± 0.29 | 796.23 ± 0.3

CCCCO [butan-1-ol]
[1]
Conditions | kinematic viscosity [m2/s] | mass density [kg/m3]
298.15 K | 3.19e-06 ± 9.3e-08 | 805.56 ± 0.29
313.15 K | 2.22e-06 ± 6.7e-08 | 794.19 ± 0.3

CCCCO [butan-1-ol] + CC1CCCO1
[2], x1 = 1
Conditions | kinematic viscosity [m2/s] | mass density [kg/m3]
298.15 K | 3.19e-06 ± 9.3e-08 | 805.56 ± 0.29
313.15 K | 2.22e-06 ± 6.7e-08 | 794.19 ± 0.3

CCC(C)O (stereo unspecified) [butan-2-ol]
[1]
Conditions | kinematic viscosity [m2/s] | mass density [kg/m3]
298.15 K | 3.73e-06 ± 1.1e-07 | 802.25 ± 0.49
313.15 K | 2.24e-06 ± 7e-08 | 789.44 ± 0.5

CCC(C)O (stereo unspecified) [butan-2-ol] + CC1CCCO1
[2], x1 = 1
Conditions | kinematic viscosity [m2/s] | mass density [kg/m3]
298.15 K | 3.73e-06 ± 1.1e-07 | 802.25 ± 0.49
313.15 K | 2.24e-06 ± 7e-08 | 789.44 ± 0.5
